According to US11498920B2, “4-(1H-imidazol-5-yl)-1H-pyrrolo[2, 3-b] pyridines for use in the treatment of leukaemias, lymphomas and solid tumors” (MASARYKOVA UNIVERZITA, priority 2018, dated 2022):

Test system: primary CLL cells
Test: Cytotoxicity, TMRE flow cytometry viability, primary CLL cells (Example II.1)
Assay type: cell-based
Conditions: Homo sapiens, CLL cell, 6 hours, TMRE positive cells normalized to control, ratio to PF670462, <1 = higher cytotoxicity than PF670462, read-out: Viability of cells, Compound of formula I (100 μM), relative to PF670462 (100 μM), CLL primary cells
Procedure: The leukemia and lymphoma-derived cell lines [MEC-1 cell line (derived from chronic lymphocytic leukemia—CLL), Nalm-16 (acute lymphocytic leukemia—ALL), K562 (chronic myeloid leukemia—CML), HL-60 (acute myeloid leukemia—AML), Maver-1 and Mino (mantle cell lymphoma—MCL), BL-41 (Burkitt lymphoma—BL), WSU-NHL (follicular lymphoma—FL), SUDHL (diffuse large B-cell lymphoma—DLBCL)], primary CLL cells and nonmalignant control primary cells were cultured in suspension in flasks under the following conditions: RPMI 1640 medium (Hyclone) supplemented with 10% fetal bovine serum (FBS, Gibco) and 1% penicillin/streptomycin (Life Technologies), 37° C., 5% CO2 and 95% relative humidity, with optimal culture cell density 5×10^6 cells/mL in case of primary cells and 0.5-1×10^6 cells/mL in case of cell lines. The adherent cell lines [A375 (derived from malignant melanoma), MDA-MB-231 and MCF-7 (breast cancer), MIA-PA-CA and PANC1 (pancreatic cancer), PC3 (prostate cancer), OVCAR4 (ovarian cancer) and HEPG2 (hepatocellular carcinoma)] were cultured on plates under the same conditions using RPMI1640 or DMEM medium (Gibco) according to instructions provided by the distributor (DSMZ/ATCC).
Cytotoxicity of compounds of formula I was tested in two models representative for leukemia (primary CLL cells) and lymphoma (Maver-1 cells). The primary CLL cells and Maver-1 cells (MCL-derived) were incubated with inhibitors at 100 μM concentration or corresponding amount of solvent (DMSO, Sigma Aldrich) as 0.1×10^6 cells/200 μl per well in a 96-well plate. Experiments were performed in technical duplicates. Viability of cells was assessed after 6 hours in case of primary CLL cells and after 24 hours in case of Maver-1 cells.
Apoptosis-induced reduction of mitochondrial potential is detected as lower TMRE fluorescence. […] Relative values are presented, showing ratio to the effect of PF670462 (as the closest prior art). Relative value <1 indicates a higher cytotoxicity than PF670462.

First: Fc1ccc(-c2ncn(CCN3CCOCC3)c2-c2ccnc3[nH]ccc23)cc1 [Preparative Example 12, 4-(2-(4-(4-fluorophenyl)-5-(1H-pyrrolo[2,3-b]pyridin-4-yl)-1H-imidazol-1-yl)ethyl)morpholine]
Second: CC(C)CCn1cnc(-c2ccc(F)cc2)c1-c1ccnc2[nH]ccc12 [Preparative Example 15, 4-(4-(4-fluorophenyl)-1-isopentyl-1H-imidazol-5-yl)-1H-pyrrolo[2,3-b]pyridine]
The viability at 100 µM of the first is higher: 80% for the first, 13% for the second.

Going from `Fc1ccc(-c2ncn(C3CCOCC3)c2-c2ccnc3[nH]ccc23)cc1` [Preparative Example 13, 4-(4-(4-fluorophenyl)-1-(tetrahydro-2H-pyran-4-yl)-1H-imidazol-5-yl)-1H-pyrrolo[2,3-b]pyridine] to `Fc1ccc(-c2ncn(C3CCOC3)c2-c2ccnc3[nH]ccc23)cc1` (stereo not shown) [Preparative Example 16, 4-(4-(4-fluorophenyl)-1-(tetrahydrofuran-3-yl)-1H-imidazol-5-yl)-1H-pyrrolo[2,3-b]pyridine], the viability at 100 µM rises from 47% to 67%.

Compared with `Fc1ccc(-c2ncn(C3CCC3)c2-c2ccnc3[nH]ccc23)cc1` [Preparative Example 17, 4-(1-cyclobutyl-4-(4-fluorophenyl)-1H-imidazol-5-yl)-1H-pyrrolo[2,3-b]pyridine], `Fc1ccc(-c2ncn(C3CCCC3)c2-c2ccnc3[nH]ccc23)cc1` [Preparative Example 18, 4-(1-cyclopentyl-4-(4-fluorophenyl)-1H-imidazol-5-yl)-1H-pyrrolo[2,3-b]pyridine] is lower in viability at 100 µM: 52% for the first, 33% for the second.

First: CC(C)OCCn1cnc(-c2ccc(F)cc2)c1-c1ccnc2[nH]ccc12 [Preparative Example 20, 4-(4-(4-fluorophenyl)-1-(2-isopropoxyethyl)-1H-imidazol-5-yl)-1H-pyrrolo[2,3-b]pyridine]
Second: CN(C)CCn1cnc(-c2ccc(F)cc2)c1-c1ccnc2[nH]ccc12 [Preparative Example 21]
The viability at 100 µM of the first is lower: 68% for the first, 72% for the second.

Compared with `Cn1cnc(-c2ccc(F)cc2)c1-c1ccnc2[nH]ccc12` [Preparative Example 25], `C=C(C)Cn1cnc(-c2ccc(F)cc2)c1-c1ccnc2[nH]ccc12` [Preparative Example 30, 4-(4-(4-fluorophenyl)-1-(2-methylallyl)-1H-imidazol-5-yl)-1H-pyrrolo[2,3-b]pyridine] is lower in viability at 100 µM: 81% for the first, 69% for the second.

Compared with `CO[C@H]1CC[C@H](n2cnc(-c3ccc(F)cc3)c2-c2ccnc3[nH]ccc23)CC1` [Preparative Example 28, 4-(4-(4-fluorophenyl)-1-(trans-4-methoxycyclohexyl)-1H-imidazol-5-yl)-1H-pyrrolo[2,3-b]pyridine], `O[C@H]1CC[C@@H](n2cnc(-c3ccc(F)cc3)c2-c2ccnc3[nH]ccc23)CC1` [Preparative Example 31] is higher in viability at 100 µM: 67% for the first, 78% for the second.

Compared with `O[C@H]1CC[C@H](n2cnc(-c3ccc(F)cc3)c2-c2ccnc3[nH]ccc23)CC1` [Preparative Example 32, trans-4-(4-(4-fluorophenyl)-5-(1H-pyrrolo[2,3-b]pyridin-4-yl)-1H-imidazol-1-yl)cyclohexan-1-ol], `CC(=O)N[C@H]1CC[C@H](n2cnc(-c3ccc(F)cc3)c2-c2ccnc3[nH]ccc23)CC1` [Preparative Example 78, N-(trans-4-(4-(4-fluorophenyl)-5-(1H-pyrrolo[2,3-b]pyridin-4-yl)-1H-imidazol-1-yl)cyclohexyl)acetamide] is higher in viability at 100 µM: 67% for the first, 87% for the second.

`c1cncc(-c2ncn(C3CCCCC3)c2-c2ccnc3[nH]ccc23)c1` [Preparative Example 44] and `CC(=O)N1CCC(n2cnc(-c3ccc(F)cc3)c2-c2ccnc3[nH]ccc23)CC1` [Preparative Example 68, 1-(4-(4-(4-fluorophenyl)-5-(1H-pyrrolo[2,3-b]pyridin-4-yl)-1H-imidazol-1-yl)piperidin-1-yl)ethan-1-one] are the same in viability at 100 µM: 81% for the first, 81% for the second.
